Laboratory results as given in patent publication US8263040B2, “Metal chelates having a perfluorinated PEG radical, processes for their preparation, and their use” (Bayer Schering Pharma AG, priority 2006, dated 2012).

Legend:
[1] = in vivo; cited from earlier work
[2] = Plasma kinetics after intravenous administration in rats (ICP-AES, WinNonlin); assay type: in vivo; settings: i.v., 50 μmol of total gadolinium/kg
Experimental: After intravenous administration of 50 μmol of total gadolinium/kg of body weight of the substances from Examples 2c), 21 c) and 22 c) in rats (n=3), blood samples were taken at different points in time (up to 24 h p.i.) by means of a catheter in the common carotid artery, and the metal content was determined by means of atomic emission spectrometry (ICP-AES) and converted to plasma values by means of a conversion factor (0.625). The pharmacokinetic parameters (Table 4) were calculated from the plasma concentrations by means of special software (WinNonlin).

histamine = assay: Release of histamine after single intravenous administration in rats (plasma histamine, ELISA); assay type: in vivo; settings: for Histamine, baseline: before contrast agent administration; for Histamine, 10 min p.i. / Histamine, 30 min p.i. / Histamine, 60 min p.i.: i.v.
Experimental: After intravenous administration of the substances from Examples 2c) and 22 c) in rats (n=3), the release of histamine was determined at different points in time. For this, blood was taken from the carotid artery before and 10, 30 and 60 minutes after contrast agent administration, and the histamine contained in the plasma was determined by means of an ELISA system. The histamine values measured can be seen in Table 2. The histamine blank values in the conscious rats were in the normal range known from the literature.

popliteal lymph nodes = assay: MRT demonstration of lymph nodes after intravenous administration in rats; assay type: in vivo; settings: i.v., 50 μmol of Gd/kg, 1.5 T, early points in time (up to 60 min p.i.)
Description: The figures show exemplary MR shots of popliteal lymph nodes at different points in time after intravenous administration of 50 μmol of Gd/kg of body weight of the substance from Example 2c) in FIG. 1, of the substance from Example 21 c) in FIG. 2, and of the substance from Example 22 c) in FIG. 3 in rats.

[3] = Excretion after intravenous administration in rats (ICP-AES); assay type: in vivo; settings: i.v., 50 μmol of total gadolinium/kg; for Gd content, rest of body: 14 days after administration; for Gd content, faeces / Gd content, urine: up to 14 days after administration
Experimental: After intravenous administration of 50 μmol of total gadolinium/kg of body weight of substances from Examples 2c), 21 c) and 22 c) in rats (n=3), the metal content was determined fractionally up to 14 days after administration by means of atomic emission spectrometry (ICP-AES) in the excretion medium urine and faeces, and in the body (rest of body) (Table 3).

[4] = Relaxivity: T1 and T2 relaxation times of water and plasma (bovine), NMR pulse spectrometer (Minispec PC 20); assay type: physicochemical; settings: for Relaxivity R1 / Relaxivity R2: 40° C., 0.47 T
Experimental: The T1 and T2 relaxation times of water and plasma (bovine) having increasing concentrations of the substance from Example 2c) contained therein were determined at 40° C. using an NMR pulse spectrometer (Minispec PC 20) at 0.47 T (Table 1).
From the R1 relaxivities in water at high and low concentrations, a critical micelle formation concentration (CMC) of 0.02 mmol of Gd/I can be determined.

mice = assay: Acute toxicity after single intravenous administration in mice (exploratory); assay type: in vivo; settings: injection rate 2 ml/min, observation period 7 days
Experimental: After intravenous administration of the substances of Examples 2c), 21 c) and 22 c) in mice (n=3; injection rate: 2 ml/min), the acute systemic tolerability (LD50) was determined in an exploratory manner. In each case, a number of doses were investigated using an observation period of 7 days. The average acute toxicities to be expected were 2.5 mmol of Gd/kg of body weight for the substance from Example 2c) and >10.0 mmol of Gd/kg of body weight for the substances from Examples 21c) and 22 c).

[5] = plasma (bovine), Gd concentration 0.271-1.086 mmol/l
[6] = water, Gd concentration 0.000-0.009 mmol/l
[7] = water, Gd concentration 0.020-1.099 mmol/l

Substance | Vc [2] [L/kg] | Vd ss [2] [L/kg] | α-t½ [2] [min] | β-t½ [2] [min] | Histamine, baseline (histamine) [ng/mL] | Histamine, 10 min p.i. (histamine) [ng/mL] | Histamine, 30 min p.i. (histamine) [ng/mL] | Histamine, 60 min p.i. (histamine) [ng/mL] | signal in the functional lymph node tissue (T1-weighted MR shots) (popliteal lymph nodes) | Gd content, rest of body [3] [% dose] | Gd content, faeces [3] [% dose] | Gd content, urine [3] [% dose] | also measured
Mn-TPPS |  |  |  |  |  |  |  |  |  |  |  |  | LD50 [1]: 0.5 mmol/kg; dose at which an action commences [1]: 0.2 mmol/kg
1,4,7-Tris(carboxylatomethyl)-10-[(3-aza-4-oxo-5-methyl-5-yl)acid N-(1H,1H,2H,2H,4H,4H,-3,6,9,12-tetraoxaperfluorohexadecyl)-N-{2-[2-(2-methoxyethoxy)ethoxy]-ethyl}amide]1,4,7,10-tetraazacyclododecane, Gd complex [Example 22c] | 0.04 ± 0.00 | 0.06 ± 0.00 | 23.6 ± 0.6 | 108 ± 18 | 3 ± 1 | 7 ± 3 | 4 ± 1 | 4 ± 1 | strong signal increase | 0.0 ± 0.0 | 83.4 ± 2.6 | 1.8 ± 0.1 | 
1,4,7-Tris(carboxylatomethyl)-10-[(3-aza-4-oxo-5-methyl-5-yl)-acid N-(1H,1H,2H,2H,4H,4H,-3,6,9,12-tetraoxaperfluorohexadecyl)-N-(2-methoxyethyl)amide]-1,4,7,10-tetraazacyclododecane, Gd complex [Example 2c] | 0.05 ± 0.00 | 0.08 ± 0.01 | 18.7 ± 2.0 | 72 ± 12 | 3 ± 2 | 4 ± 4 | 5 ± 3 | 3 ± 2 | strong signal increase | 0.2 ± 0.3 | 92.9 ± 1.5 | 0.8 ± 0.2 | critical micelle formation concentration (CMC) ([4]; from the R1 relaxivities in water at high and low concentrations): 0.02 mmol of Gd/I; protein bond (relaxivity in plasma greater than in water) ([4]; plasma (bovine) versus water): indicates a protein bond; Relaxivity R1 [4, 5]: 26.0 ± 0.5 L/mmol/s; Relaxivity R2 [4, 5]: 35.1 ± 0.3 L/mmol/s; Relaxivity R1 [4, 6]: 5.3 ± 0.4 L/mmol/s; Relaxivity R2 [4, 6]: 5.3 ± 1.2 L/mmol/s; Relaxivity R1 [4, 7]: 17.8 ± 0.1 L/mmol/s; Relaxivity R2 [4, 7]: 16.3 ± 0.2 L/mmol/s; acute systemic tolerability (LD50) (mice): 2.5 mmol of Gd/kg of body weight
1,4,7-Tris(carboxylatomethyl)-10-{(3-aza-4-oxo-5-methyl-5-yl)-acid-N-(1H,1H,2H,2H,4H,4H,-3,6,9,12-tetraoxaperfluorohexadecyl)-N-[2-(2-methoxyethoxy)ethyl]amide}-1,4,7,10-tetraazacyclododecane, Gd complex [Example 21c] | 0.04 ± 0.00 | 0.05 ± 0.00 | 28.4 ± 1.5 | 78 ± 12 |  |  |  |  | strong signal increase | 0.0 ± 0.0 | 84.9 ± 0.7 | 3.8 ± 0.1 | 
